Laboratory results taken from patent publication US20160130259A1, “SUBSTITUTED BENZOFURAN COMPOUNDS AND METHODS OF USE THEREOF FOR THE TREATMENT OF VIRAL DISEASES” (priority 2013, published 2016).

How the values were obtained:
HCV replicon genotype 1a = assay: HCV replicon assay, genotype 1a (cell ELISA for NS3/4A); format: cell-based; settings: Hepatitis C virus, 96 h, read-out: 1a IC50 (nM)
Method: (§1) Measurement of inhibition by compounds was performed using the HCV replicon system. Several different replicons encoding different HCV genotypes or mutations were used. In addition, potency measurements were made using different formats of the replicon assay, including different ways of measurements and different plating formats. See Jan M. Vrolijk et al., A replicons-based bioassay for the measurement of interferons in patients with chronic hepatitis C, 110 J. Virological Methods 201 (2003); Steven S. Carroll et al., Inhibition of Hepatitis C Virus RNA Replication by 2′-Modified Nucleoside Analogs, 278(14) J. Biological Chemistry 11979 (2003). However, the underlying principles are common to all of these determinations, and are outlined below.
(§2) Stable neomycin phosphotransferase encoding replicons-harboring cell lines were used, so all cell lines were maintained under G418 selection prior to the assay. Potency was determined using a cell ELISA assay with an antibody to the replicons encoded NS3/4a protease. See Caterina Trozzi et al., In Vitro Selection and Characterization of Hepatitis C Virus Serine Protease Variants Resistant to an Active-Site Peptide Inhibitor, 77(6) J. Virol. 3669 (2003). To initiate an assay, replicon cells were plated in the presence of a dilution series of test compound in the absence of G418. Typically, the assays were performed in a 96-well plate formate for manual operation, or a 384-well plate format for automated assay. Replicon cells and compound were incubated for 96 hours. At the end of the assay, cells were washed free of media and compound, and the cells were then lysed. RNA was quantified indirectly through detection of replicon-encoded NS3/4A protein levels, through an ELISA-based assay with an antibody specific for NS3/4A. IC50 determinations were calculated as a percentage of a DMSO control by fitting the data to a four-parameter fit function and the data obtained is provided in the table below.
(§3) Data for selected compounds of the present invention was obtained for genotypes 1a and 1b using this method and is provided in the table below: […]

HCV replicon genotype 1b = assay: HCV replicon assay, genotype 1b (cell ELISA for NS3/4A); format: cell-based; settings: Hepatitis C virus, 96 h, read-out: 1b IC50 (nM)
Method: as §1, §2, §3

Compound	IC50 (HCV replicon genotype 1a)	IC50 (HCV replicon genotype 1b)
CNC(=O)c1c(-c2ccc(F)cc2)oc2cc(N(C)S(C)(=O)=O)c(-c3cc(-c4cc5c(F)cccc5[nH]4)c(=O)n(C(F)F)c3)cc12 [Compound 3, 5-(1-(difluoromethyl)-5-(4-fluoro-1H-indol-2-yl)-6-oxo-1,6-dihydropyridin-3-yl)-2-(4-fluorophenyl)-N-methyl-6-(N-methylmethyl-sulfonamido)benzofuran-3-carboxamide]	2.98 nM	5.37 nM
CNC(=O)c1c(-c2ccc(F)cc2)oc2cc(N(C)S(C)(=O)=O)c(-c3cc4n(c(=O)n3)CCn3c-4cc4c(F)cccc43)cc12 [Compound 31, 5-(12-fluoro-4-oxo-6,7-dihydro-4H-pyrimido[6′,1′:3,4]pyrazino[1,2-a]indol-2-yl)-2-(4-fluorophenyl)-N-methyl-6-(N-methylmethylsulfonamido)benzofuran-3-carboxamide]	3.48 nM	6.95 nM
CNC(=O)c1c(-c2ccc(F)cc2)oc2cc(N(C)S(C)(=O)=O)c(-c3cc(-c4cc5c(F)cccc5n4C)c(=O)n(C(F)F)c3)cc12 [Compound 8, 5-(1-(difluoromethyl)-5-(4-fluoro-1-methyl-1H-indol-2-yl)-6-oxo-1,6-dihydropyridin-3-yl)-2-(4-fluorophenyl)-N-methyl-6-(N-methyl-methylsulfonamido)benzo-furan-3-carboxamide]	6.45 nM	5.95 nM
CNC(=O)c1c(-c2ccc(F)cc2)oc2cc(N(C)S(C)(=O)=O)c(-c3cc(-c4cnn(-c5ccc(F)cc5)c4)c(=O)n(C)c3)cc12 [Compound 4, 2-(4-fluorophenyl)-5-(5-(1-(4-fluorophenyl)-1H-pyrazol-4-yl)-1-methyl-6-oxo-1,6-dihydropyridin-3-yl)-N-methyl-6-(N-methyl-methylsulfonamido)benzo-furan-3-carboxamide]	5.71 nM	6.81 nM
CNC(=O)c1c(-c2ccc(F)cc2)oc2cc(N(C)S(C)(=O)=O)c(-c3cc(-c4cc5c(C#N)cccc5n4C)c(=O)n(C)n3)cc12 [Compound 17, 5-(5-(4-cyano-1-methyl-1H-indol-2-yl)-1-methyl-6-oxo-1,6-dihydropyridazin-3-yl)-2-(4-fluorophenyl)-N-methyl-6-(N-methylmethylsulfonamido) benzofuran-3-carboxamide]	2.29 nM	4.26 nM
CNC(=O)c1c(-c2ccc(F)cc2)oc2cc(N(C)S(C)(=O)=O)c(-c3cc(-c4nc5ccccc5o4)c(=O)n(C)c3)cc12 [Compound 5, 5-(5-(benzo[d]oxazol-2-yl)-1-methyl-6-oxo-1,6-dihydropyridin-3-yl)-2-(4-fluorophenyl)-N-methyl-6-(N-methylmethylsulfonamido)benzofuran-3-carboxamide]	5.82 nM	3.71 nM
CNC(=O)c1c(-c2ccc(F)cc2)oc2ccc(-n3cc(C(=O)NCc4ccc(F)cn4)ncc3=O)cc12 [Compound 23, 4-(2-(4-fluorophenyl)-3-(methylcarbamoyl)benzofuran-5-yl)-N-((5-fluoropyridin-2-yl)methyl)-5-oxo-4,5-dihydropyrazine-2-carboxamide]	492 nM	213 nM
CNC(=O)c1c(-c2ccc(F)cc2)oc2cc(N(C)S(C)(=O)=O)c(-c3cc(-c4cc5c(C#N)cccc5[nH]4)cn(C)c3=O)cc12 [Compound 12, 5-(5-(4-cyano-1H-indol-2-yl)-1-methyl-2-oxo-1,2-dihydropyridin-3-yl)-2-(4-fluorophenyl)-N-methyl-6-(N-methylmethylsulfonamido) benzofuran-3-carboxamide]	3.28 nM	1.67 nM
CNC(=O)c1c(-c2ccc(F)cc2)oc2cc(N(C)S(C)(=O)=O)c(-c3cc(N4Cc5c(F)cccc5C4=O)c(=O)n(C)c3)cc12 [Compound 6, 5-(5-(4-fluoro-1-oxoisoindolin-2-yl)-1-methyl-6-oxo-1,6-dihydropyridin-3-yl)-2-(4-fluorophenyl)-N-methyl-6-(N-methylmethylsulfonamido)benzofuran-3-carboxamide]	16.5 nM	8.38 nM
CNC(=O)c1c(-c2ccc(F)cc2)oc2ccc(-n3cc(C(=O)NC4(c5ccccc5)CC4)ncc3=O)cc12 [Compound 26, 4-(2-(4-fluorophenyl)-3-(methylcarbamoyl)benzofuran-5-yl)-5-oxo-N-(1-phenylcyclopropyl)-4,5-dihydropyrazine-2-carboxamide]	129 nM	29.7 nM
CNC(=O)c1c(-c2ccc(F)cc2)oc2cc(N(C)S(C)(=O)=O)c(-c3ccc(=O)n(-c4ccc(F)cc4)c3)cc12 [Compound 29, 2-(4-fluorophenyl)-5-(1-(4-fluorophenyl)-6-oxo-1,6-dihydropyridin-3-yl)-N-methyl-6-(N-methylmethylsulfonamido) benzofuran-3-carboxamide]	110 nM	31.8 nM
CNC(=O)c1c(-c2ccc(F)cc2)oc2cc(N(C)S(C)(=O)=O)c(-c3cc(-c4cc5ncccc5[nH]4)c(=O)n(C)n3)cc12 [Compound 15, 2-(4-fluorophenyl)-N-methyl-5-(1-methyl-6-oxo-5-(1H-pyrrolo[3,2-b]pyridin-2-yl)-1,6-dihydropyridazin-3-yl)-6-(N-methylmethylsulfonamido) benzofuran-3-carboxamide]	238 nM	81.1 nM
CNC(=O)c1c(-c2ccc(F)cc2)oc2cc(N(C)S(C)(=O)=O)c(-c3cn(C)c(=O)c(-c4cc5c(F)cccc5n4C)n3)cc12 [Compound 21, 5-(6-(4-fluoro-1-methyl-1H-indol-2-yl)-4-methyl-5-oxo-4,5-dihydropyrazin-2-yl)-2-(4-fluorophenyl)-N-methyl-6-(N-methylmethylsulfonamido)benzofuran-3-carboxamide]	13.7 nM	5.99 nM
CNC(=O)c1c(-c2ccc(F)cc2)oc2cc(N(C)S(C)(=O)=O)c(-c3cnc(=O)n(-c4ccc5ccccc5c4)c3)cc12 [Compound 28, 2-(4-fluorophenyl)-N-methyl-6-(N-methylmethylsulfonamido)-5-(1-(naphthalen-2-yl)-2-oxo-1,2-dihydropyrimidin-5-yl)benzofuran-3-carboxamide]	116 nM	18 nM
